Results taken from patent US5808109A, “Compounds that inhibit complement and/or suppress immune activity” (T Cell Sciences, Inc., priority 1995, dated 1998).
Like-named read-outs stand apart in the source and are kept apart here.

Legend:
[1] = test system: CD8 protein release; assay: CD8 protein release into supernatant of stimulated PBL cultures (enzyme immunoassay); format: cell-based, human; conditions: stimulated PBL cultures (FIG. 7)
Procedure: (§1) Release of cell surface interleukin-2 receptor (IL-2R) or CD8 antigen from lymphocytes is a correlate of T cell activation (Rubin et al. J. Immunol. 1985, 135, 3172-77; Rubin et al. Fed. proc. 1985 44, 946; Fujimoto, J. et al. J. Exp. Med. 1983, 159, 752-66; Tomkinson, B. et al. 2d Annual Conference on Clinical Immunol. Washington, D.C., Oct. 30, 1987). In some experiments, the level of IL-2R or CD8 protein released into the supernatant of the PBL cultures was assessed by removing aliquots therefrom just prior to pulsing with ^3 H-thymidine. Commercially available enzyme immunoassay kits (CELLFREE™ IL-2R, Cat. No. CK1020, T Cell Sciences, Inc., Cambridge, Mass., or CELL-FREE™ T8/CD8, Cat. No. CK1040, T Cell Sciences) were used to determine the levels of the two analytes.

[2] = test system: human peripheral blood lymphocytes (PBL); assay: Inhibition of proliferation of peripheral blood lymphocytes, 3H-thymidine incorporation; format: cell-based; conditions: Lymphocyte
Procedure: The proliferation of human peripheral blood lymphocytes (PBL) in response to phytohemagglutinin (PHA, Well-come) or anti-CD3 monoclonal antibody (OKT-3, Ortho) was assessed by the incorporation of ^3 H-thymidine. Compound 11a was diluted in culture media to the desired concentrations, human PBL were added to a final concentration of 10^6 cells/ml, and then either PHA (Wellcome) or anti-CD3 (OKT3, Ortho) antibody (final concentration, […]) was added to initiate proliferation. The final volume per sample was 100 μl. The cells were incubated for 72 hours after stimulation, pulsed with 1 μCi ^3 H-thymidine per sample for 4 hours, harvested, and counted in a scintillation counter. […] Because cell viability was unaffected by the presence of 11a (see supra), the inhibition apparently was not due to cytotoxic effects.

[3] = test system: human complement; assay: Inhibition of complement-mediated hemolysis, human serum, sensitized sheep erythrocytes; format: biochemical
Procedure: The ability to inhibit complement was also tested by assaying for inhibition of complement-mediated red cell lysis (hemolysis). The inhibition of hemolysis was determined as a function of compound concentration. The compounds to be tested were diluted in 0.1M Hepes buffer (0.15N NaCl, pH 7.4), and 50 μl were added to each well of a V-bottom microtiter plate. Human serum, used as the complement source, was diluted 1 to 500 in Hepes buffer, and 50 μl were added to each well. Next, commercially available sheep erythrocytes with anti-sheep antibody (Diamedix Cat. No. 789-001) were used as received and added at 100 μl/well to initiate the complement pathway leading to hemolysis. The plate was incubated for 60 minutes at 37° C. and then centrifuged at 500×g for 10 minutes. The supernatants were removed and placed in a flat-bottom microtiter plate. The extent of hemolysis was measured as a function of the sample absorbance at 410 nm. The maximal absorbance (corresponding to maximal hemolysis), Amax, was obtained from the absorbance value of an erythrocyte sample containing only human serum, AS, less the absorbance of a sample containing only the red cells, A0. Thus, Amax =AS -A0. The difference between the absorbance of an erythrocyte sample containing both human serum and inhibitive compound, and the absorbance of a cell sample containing inhibitive compound only, was defined as Asample. The inhibition, IH, was expressed as the fraction (Amax -Asample)/Amax, and IH50 was defined as the concentration of inhibitive compound required to produce a value of IH=1/2.
The 4 substituted spirobenzofuran compounds of example 7 and the disubstituted spirobenzofuran compounds of example 8 were tested for their capacity to inhibit complement-mediated lysis of sheep red blood cells (SRBC) as described in Section 6.6.2 supra with the modification that the human serum used as the complement source was diluted to 1 to 100 in Hepes buffer, instead of […]. The results of the hemolysis assays are shown in FIG. 8 and Tables XI and XII.

[4] = test system: interleukin-2 receptor (IL-2R) release; assay: IL-2R release into supernatant of stimulated PBL cultures (enzyme immunoassay); format: cell-based, human; conditions: stimulated PBL cultures (FIG. 6)
Procedure: as §1

[5] = Viability of effector cells by trypan blue exclusion; format: cell-based; conditions: human, peripheral blood mononuclear cells
Procedure: where EXP (experimental value) was obtained using effector and target cells; SR (the spontaneous release) was obtained from target cells incubated with media alone; TOTAL release was obtained by hypotonic lysis in water; and B represents instrumental background. Means were calculated from quadruplicate wells and the standard deviations never exceeded 10%. Viability of the effector cells incubated with the test compound was determined by trypan blue exclusion.

Compound: COc1ccc(C(=O)O)c2c1CC1(CCCCC1)O2 [Compound 11a, 7-carboxy-4-methoxyspiro[benzofuran-2(3H)-cyclohexane]]
- CD8 protein release [1]: inhibitor
- IC50 ([2]; PHA stimulated (FIG. 4), read-out: Half-maximal inhibition of PBL proliferation): ~500 µM
- IC50 ([2]; Table IX, PHA stimulation, 72 h, read-out: IP50 PHA-stimulated PBL): 400 µM
- IC50 ([2]; Table IX, anti-CD3 (OKT-3) stimulation, 72 h, read-out: IP50 OKT-3-stimulated PBL): 500 µM
- IC50 ([3]; Table VII, human serum, read-out: IHO50): 1330 µM
- IC50 ([3]; Table XI, human serum diluted 1 to 100, read-out: IH50 Mean): 1330 µM
- IC50 ([3]; from FIG. 3 plot, read-out: IH50 (the source's name)): ~900 µM
- IL-2R protein release [4]: inhibitor
- viability at 400 µM ([5]; 0.4 mM): 95%
- viability at 800 µM ([5]; 0.8 mM): 95%
- viability at 1600 µM ([5]; 1.6 mM): 95%
- viability at 3200 µM ([5]; 3.2 mM): 76%
- viability at 6400 µM ([5]; 6.4 mM): 5%
